In PubChem BioAssay (NCI):
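Test compounds were applied to cells in 96-well plates for 48 hours at 5 doses. TGI is the concentration that stops growth completely.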

What was measured:
Test in all cases: inhibition of tumour cell growth, NCI panel, 48 h
[1] = test system: NCI-H460 lung
[2] = test system: MDA-MB-231 breast
[3] = test system: EKVX NSCLC
[4] = test system: HCT-116 colon
[5] = test system: SNB-19 CNS
[6] = test system: HCC-2998 colon
[7] = test system: RPMI-8226 leukemia
[8] = test system: HOP-92 NSCLC
[9] = test system: SF-295 CNS
[10] = test system: OVCAR-8 ovarian
[11] = test system: NCI-H226 lung
[12] = test system: SF-539 CNS
[13] = test system: SK-MEL-5 melanoma
[14] = test system: MOLT-4 leukemia
[15] = test system: T-47D breast
[16] = test system: TK-10 renal

| SMILES | TGI [1] | TGI [2] | TGI [3] | TGI [4] | TGI [5] | TGI [6] | TGI [7] | TGI [8] | TGI [9] | TGI [10] | TGI [11] | TGI [12] | TGI [13] | TGI [14] | TGI [15] | TGI [16] |
| --- | --- | --- | --- | --- | --- | --- | --- | --- | --- | --- | --- | --- | --- | --- | --- | --- |
| CCOC(=O)C(C(=O)OCC)=C1SC(=Nc2ccccc2)C(=Nc2ccccc2)N1c1ccccc1 | > 100 µM | > 100 µM | > 100 µM | > 100 µM | > 100 µM | > 100 µM | > 100 µM | > 100 µM | > 100 µM | > 100 µM | > 100 µM | > 100 µM | > 100 µM | > 100 µM | > 100 µM |  |
| CO/C=C/C=C(\C#N)C(=O)OC | > 100 µM | > 100 µM | > 100 µM | > 100 µM | > 100 µM | > 100 µM | > 100 µM | > 100 µM | > 100 µM | > 100 µM | > 100 µM | > 100 µM | > 100 µM | > 100 µM | > 100 µM | > 100 µM |
| O=C1NC2c3c(I)sc(I)c3C(=O)C2O1 (centres undefined) | 32.9 µM | 7.86 µM | 16.5 µM | 6.87 µM | 17.8 µM | 15.5 µM | 34.1 µM | 10.1 µM | 30.5 µM | 9.27 µM | 20.4 µM | 4.92 µM | 6.16 µM | > 38.5 µM | > 45.7 µM | 27.3 µM |
| O=C(C=P(c1ccccc1)(c1ccccc1)c1ccccc1)c1ccc(-c2cccs2)cc1 | 12.2 µM | 25.5 µM | 7.09 µM | 13.9 µM | 11.2 µM | 6.46 µM | 5.07 µM | 11.3 µM | 17.4 µM | 17.8 µM | 8.4 µM | 12.4 µM | 5.25 µM | 4.7 µM | 9.61 µM | 11.3 µM |
| CCOC(=O)C1(C#N)OC(=O)c2cnccc21 (centres undefined) | > 100 µM | > 100 µM | > 100 µM | > 100 µM | > 100 µM | > 100 µM | > 100 µM | > 100 µM | > 100 µM | > 100 µM | > 100 µM | > 100 µM |  | > 100 µM | > 100 µM |  |
| Cc1cc(S(=O)(=O)NC2=NCc3nc4ccccc4n32)c(S)cc1Cl | 82.4 µM | 55.9 µM | 86 µM | 34.5 µM | > 100 µM | 35.7 µM | 47.6 µM | 47.2 µM | 37.6 µM | > 100 µM | 40.9 µM | 42.7 µM | 32.1 µM | 50.2 µM | 50.3 µM | > 100 µM |
| Nc1nc(Cl)cc(NCC2(O)CCC2)n1 | > 100 µM | > 100 µM | > 100 µM | > 100 µM |  | > 100 µM | > 100 µM | > 100 µM | > 100 µM | > 100 µM | > 100 µM | > 100 µM | > 100 µM | > 100 µM | > 100 µM | > 100 µM |
| Cc1ccc2c(=O)cc(-c3sccc3C)[nH]c2n1 | > 79.8 µM | > 43.4 µM | > 100 µM | 18.7 µM | > 100 µM | 7.13 µM |  | > 100 µM | > 100 µM | > 31.8 µM | 6.55 µM | 1.79 µM | 3.88 µM | > 27.8 µM | > 100 µM | > 100 µM |
| CC1CC(N)=C(C#N)C1(C#N)C#N (centres undefined) |  | > 100 µM | > 100 µM | > 100 µM | > 100 µM | > 100 µM | > 100 µM | > 100 µM | > 100 µM | > 100 µM | > 100 µM | > 100 µM |  | > 100 µM | > 100 µM | > 100 µM |
| N#CC(c1ccccc1)N(CCCCCCN(C(=O)c1ccccc1)C(C#N)c1ccccc1)C(=O)c1ccccc1 (centres undefined) | 84.2 µM | > 100 µM | > 100 µM | 83.4 µM | > 100 µM | 48.1 µM |  | 50.3 µM | > 100 µM | > 100 µM | > 100 µM | > 100 µM | 32.9 µM | > 100 µM | > 100 µM | 62.6 µM |
| COc1cc2c(cc1OC)OC(c1c(OC)ccc(OC)c1O)CC2 (centres undefined) | > 100 µM | > 100 µM | > 100 µM | > 100 µM | > 100 µM | > 100 µM | > 100 µM | > 100 µM | > 100 µM | > 100 µM | > 100 µM | > 100 µM | > 100 µM | > 100 µM | > 100 µM | > 100 µM |
| CCOC1OC(COC(=O)C(C)(C)C)C(O)CC1n1cc(C)c(=O)[nH]c1=O (centres undefined) | > 100 µM | > 100 µM | > 100 µM | > 100 µM | > 100 µM | > 100 µM | > 100 µM | > 100 µM | > 100 µM | > 100 µM | > 100 µM | > 100 µM | > 100 µM |  | > 100 µM | > 100 µM |
| CCCCN1C(=O)C2Cc3c([nH]c4ccccc34)C(c3cccc(O)c3)N2C1=O (centres undefined) | 37.1 µM | 31.2 µM | 31.9 µM | 34.9 µM | 34.6 µM | 34.2 µM | 51.2 µM | 33.8 µM | 31.9 µM | 33.2 µM | 42.3 µM | 34.3 µM | 31.1 µM | 69.6 µM | 51.9 µM | 33.6 µM |
| Oc1c(Br)cc(/C=C/c2ccnc(/C=C/c3cc(Br)c(O)c(Br)c3)c2)cc1Br | > 100 µM | 59.4 µM | 56.4 µM | 30.7 µM | > 100 µM | > 100 µM | 51.6 µM | > 100 µM | > 100 µM | 83.9 µM |  | 33 µM | 41 µM | 45.8 µM | 52.1 µM | 75 µM |
| CC[C@]12C=CCN3CC[C@@]4(c5cc(N=O)c(OC)cc5N(C)[C@H]4[C@@](O)(C(=O)OC)[C@@H]1OC(C)=O)[C@@H]32 | > 100 µM | > 100 µM | > 100 µM | > 100 µM | > 100 µM | > 100 µM |  | > 100 µM | > 100 µM | > 100 µM | > 100 µM | 66.5 µM | > 100 µM | > 100 µM | > 100 µM | > 100 µM |
